# Entries after “also recorded” stand apart in the source; their conditions may differ.
# Legend:
# Type in all cases: cell-based
# [1] = test system: murine colorectal carcinoma cell line MC38; assay: TNF induced apoptosis in MC38 cells in combination with SIK3 inhibitor; details: 1 ng/ml TNF plus E9 vs DMSO control, caspase 3/7 at 8 hours, annexin V and cytotox red at 24 hours, FIG. 3
# Procedure: (§1) The experiments were done briefly as follows: murine colorectal carcinoma cell line MC38, murine triple negative breast cancer cell line EMT6 and human melanoma tumor cell line A375 were treated with 1 ng/ml TNF, 0.8 ng/ml murine death receptor 5 targeting antibody (clone MD5-1) and 10 ng/ml complexed TRAIL, respectively, or with the appropriate negative controls, in combination with the SIK3 inhibitor E9 and an associated DMSO control. The onset of tumor cell death was monitored 8 hours after treatment initiation by analyzing cleavage of effector caspases 3/7 using Caspase-Glo® assay from Promega according to manufacturer's protocol. In addition, 24 hours after treatment initiation, the increase in extracellular phosphatidylserine expression was measured by annexin V expression level and cell membrane disruption by cytotox red staining, both according to manufacturer's protocol.
# [2] = test system: human melanoma tumor cell line A375; assay: Complexed TRAIL induced apoptosis in A375 cells in combination with SIK3 inhibitor; details: 10 ng/ml complexed TRAIL plus E9 vs DMSO control, caspase 3/7 at 8 hours, annexin V and cytotox red at 24 hours, FIG. 5
# Procedure: as §1
# [3] = test system: murine triple negative breast cancer cell line EMT6; assay: Death receptor 5 antibody (MD5-1) induced apoptosis in EMT6 cells in combination with SIK3 inhibitor; details: 0.8 ng/ml murine death receptor 5 targeting antibody (clone MD5-1) plus E9 vs DMSO control, caspase 3/7 at 8 hours, annexin V and cytotox red at 24 hours, FIG. 4
# Procedure: as §1
structure (smiles),measurement,setting,value
"Cc1nc(Nc2ncc(C(=O)Nc3c(CF)csc3Cl)s2)cc(N2CCN(C)CC2)n1 [Compound E9, N-(2-chloro-4-(fluoromethyl)thiophen-3-yl)-2-((2-methyl-6-(4-methylpiperazin-1-yl)pyrimidin-4-yl)amino)thiazole-5-carboxamide]","enhancement of death receptor induced apoptosis (caspase-3/7 cleavage, annexin V, cytotox red)",[1],potent enhancement of death receptor induced apoptosis; also recorded: enhanced death receptor mediated apoptosis
same,"enhancement of death receptor induced apoptosis (caspase-3/7 cleavage, annexin V, cytotox red)",[2],enhanced death receptor mediated apoptosis; also recorded: potent enhancement of death receptor induced apoptosis
same,"enhancement of death receptor induced apoptosis (caspase-3/7 cleavage, annexin V, cytotox red)",[3],potent enhancement of death receptor induced apoptosis; also recorded: enhanced death receptor mediated apoptosis

# — patent publication US20250249000A1, “SIK3 INHIBITORS FOR TREATING DISEASES RESISTANT TO DEATH RECEPTOR SIGNALLING” (IOMX THERAPEUTICS AG, priority 2022, published 2025)
